Test system: M. terrae cells
Experiment: PAA time course, cell suspension testing of M. terrae cell resistance to high-level disinfection
Assay type: cell-based, Mycobacterium terrae ATCC 15755
Details: for Log Population / Log reduction / M. terrae Population: 850 ppm PAA, 30° C., 21 days growth culture
Experimental: Into a 50 ml polypropylene tube, pipet 0.85 ml of RAPICIDE Part A, 0.85 ml of RAPICIDE part B, and mix with 48.3 ml of distilled water. Vortex to mix thoroughly. Place tube in 30° C. water bath to equilibrate for at least 10 minutes before use.
PAA Time course: Exposure to PAA for various contact time points at 30° C. at the minimum effective concentration of RAPICIDE PAA (850 ppm). 10 μl of M. terrae cell samples at a target concentration of at least 1×10^8 cfu/mL were added to a 1.5 mL […] each sample in a 30° C. water bath. At the end of each contact time, samples were neutralized by adding 600 μL of 3% sodium thiosulfate with 0.05% Tween 80 for 15 mins at 30° C. Samples were centrifuged for 10 mins at 14000 rpm at 4 C. The supernatant was decanted off and samples were resuspended in 1 ml of BBL buffer. Serial dilutions (1:10) were made of each sample and 1 mL of each dilution was plated on Middlebrook 7H10 agar with Middlebrook OADC enrichment. Plates were incubated at 37° C. for 14-21 days.
The procedure of Example 1 was repeated using 21-days growth cells, with the M. terrae cells exposed to PAA instead of OPA.

In the case of `CC(=O)OO` [PAA, peracetic acid], the “Log Population” value (exposure 1 seconds) is reported as 10.2, the Log reduction (exposure 1 seconds) is reported as 0.0 and the “M. terrae Population” value (exposure 1 seconds) is reported as 1.53E+10 CFU. For the same compound, the “Log Population” value (exposure 15 seconds) was 9.5, the Log reduction (exposure 15 seconds) was 0.7 and the “M. terrae Population” value (exposure 15 seconds) was 3.45E+09 CFU. For the same compound, the “Log Population” value (exposure 30 seconds) was 8.1, the Log reduction (exposure 30 seconds) was 2.1 and the “M. terrae Population” value (exposure 30 seconds) was 1.40E+08 CFU. The “Log Population” value (exposure 60 seconds) was 7.3, the Log reduction (exposure 60 seconds) was 2.9 and the “M. terrae Population” value (exposure 60 seconds) was 2.00E+07 CFU. For the same compound, the “Log Population” value (exposure 90 seconds) was 0, the Log reduction (exposure 90 seconds) was 10.2 and the “M. terrae Population” value (exposure 90 seconds) was 1.00E+00 CFU. The “Log Population” value (exposure 120 seconds) was 0, the Log reduction (exposure 120 seconds) was 10.2 and the “M. terrae Population” value (exposure 120 seconds) was 1.00E+00 CFU. The “Log Population” value (exposure 150 seconds) was 0, the Log reduction (exposure 150 seconds) was 10.2 and the “M. terrae Population” value (exposure 150 seconds) was 1.00E+00 CFU. The “Log Population” value (exposure 180 seconds) was 0, the Log reduction (exposure 180 seconds) was 10.2 and the “M. terrae Population” value (exposure 180 seconds) was 1.00E+00 CFU. For the same compound, the “Log Population” value (exposure 210 seconds) was 0, the Log reduction (exposure 210 seconds) was 10.2 and the “M. terrae Population” value (exposure 210 seconds) was 1.00E+00 CFU. For the same compound, the “Log Population” value (exposure 240 seconds) was 0, the Log reduction (exposure 240 seconds) was 10.2 and the “M. terrae Population” value (exposure 240 seconds) was 1.00E+00 CFU. For the same compound, the “Log Population” value (exposure 270 seconds) was 0, the Log reduction (exposure 270 seconds) was 10.2 and the “M. terrae Population” value (exposure 270 seconds) was 1.00E+00 CFU. For the same compound, the “Log Population” value (exposure 300 seconds) was 0, the Log reduction (exposure 300 seconds) was 10.2 and the “M. terrae Population” value (exposure 300 seconds) was 1.00E+00 CFU. For the same compound, the “exposure to PAA for a 6 log reduction in M. terrae cells” value (PAA at 30° C., 21-days growth cells) was “about 75 seconds”.

From patent publication US11065355B2, “Device for monitoring efficacy of a decontamination process comprising a bacteria cell and method of using” (priority 2017, dated 2021)
